Assay [1] concerns T1, TconTS1.
T1 construct: catalytic plus lectin-like domain; C3 protease site, C-terminal SNAP and Strep tag kept; secreted by CHO Lec1 cells; high-mannose N-glycans; mock-incubated 16 h at 37 °C
The assay can be described thus: HPAEC-PAD of […]'-sialyllactose formed, […] min, Michaelis-Menten fit. The format is biochemical, Trypanosoma congolense. The note with it: two biological replicates; sialic acid acceptor; donor fetuin (600 μM bound Neu5Ac); 10 mM potassium phosphate pH 7.4, 37 °C; N-glycosylated enzyme.

For assay [2], the system named is T2, H-TconTS1.
T2 construct: same polypeptide as P1 (SNAP and Strep tag kept, CHO Lec1 cells), but N-glycans partly removed with EndoHf (16 h), leaving single GlcNAc residues; hypoglycosylated
Described as above. It counts as biochemical, Trypanosoma congolense. The note with it: two biological replicates, purified differently after EndoHf; sialic acid acceptor; donor fetuin (600 μM bound Neu5Ac); 10 mM potassium phosphate pH 7.4, 37 °C; EndoHf-treated hypoglycosylated enzyme.

In the case of `OC[C@H]1O[C@@H](O[C@H]2[C@H](O)[C@@H](O)C(O)O[C@@H]2CO)[C@H](O)[C@@H](O)[C@H]1O` (some centres unmarked) [lactose], the “KM (apparent)” value is 1.7 and 2.0 mM in assay [1]; 9.0 and 3.2 mM in assay [2].

Values taken from article PMC9493392, “N-glycosylation modulates enzymatic activity of Trypanosoma congolense trans-sialidase” (The Journal of Biological Chemistry, 2022).
